According to PMC12380353, “MK-8527 is a novel inhibitor of HIV-1 reverse transcriptase translocation with potential for extended-duration dosing” (PLOS Biology, 2025):

Key:
HIV-2ROD = experiment: Cytoprotection assay in CEM-SS cells, HIV-2; type: cell-based; conditions: Human immunodeficiency virus 2, 144 h, 6 days, read-out: Antiviral potency as IC50, HIV-2 – CEM-SS cells
Experimental: The antiviral activity of MK-8527 against HIV-1 and HIV-2 was determined in a cytoprotection assay in CEM-SS cells at ImQuest BioSciences (Fredrick, MD, USA). Briefly, CEM-SS cells (National Institute of Health AIDS Research and Reference Reagent Program) were passaged in RPMI 1640 supplemented with 10% heat-inactivated FBS, 2 mM L-glutamine, 100 U/mL penicillin and 100 µg/mL streptomycin prior to use in the antiviral assay. On the day preceding the assay, the cells were split 1:2 to ensure they were in an exponential growth phase at the time of infection. The cells were resuspended at 2.5 × 10^3 cells per well in cell culture medium and added to the drug-containing microtiter plates at 50 µL per well. MK-8527 was tested in triplicate for each experiment, with 12 test concentrations added at 100 µL per well.
Lymphocyte-tropic virus strains HIV-1IIIB or HIV-2ROD (NIH AIDS Research and Reference Reagent Program) were diluted into tissue culture medium such that the amount of virus added to each well in a volume of […] corresponded to the amount determined to yield 85% to 95% cell killing in the untreated virus control wells at 6–7 days. Virus was added immediately after cells were added to the 96-well microtiter plates.
The IC50 for MK-8527 antiviral activity was determined using 4-parameter curve fit calculations.

[1] = Uptake and phosphorylation assay in PBMCs; type: in vitro ADME, human; conditions: PBMCs incubated with 0.21 nM MK-8527
Experimental: To determine the amount of MK-8527 phosphorylated forms produced after treatment of PBMCs, uptake and phosphorylation assays were performed. PBMCs were activated with 5 µg/mL PHA in RPMI 1640, 10% FBS, 100 units/mL penicillin, and 100 µg/mL streptomycin at 1.2 × 10^6 cells/mL. All incubations were in a humidified incubator at 37 °C and with 5% CO2. After 3–4 days in culture, media containing PHA were removed by centrifugation at 300g for 10 min. Cells were resuspended at 2 × 10^6 cells/mL in RPMI 1,640, 10% NHS, 100 units/mL penicillin, 100 µg/mL streptomycin, and 20 units/mL IL-2. A total of 7.5 × 10^6 to 2 × 10^7 cells were transferred to a miniature bioreactor tube. […]
The intracellular concentration of MK-8527-TP was determined by an LC–MS/MS assay. […] Quantification was performed by monitoring the transitions of m/z 548.9 to 169.1 for MK-8527-TP. […] The method’s lower limit of quantification was between 1 and 5 nM depending on the assay volumes of cell suspension. Analyte concentrations in cell samples across species were determined from the standard curves using linear regression with 1/×2 weighting.
Concentrations of intracellular phosphorylated forms were expressed in picomoles per 10^6 cells by using the molar concentration of each compound as determined by LC–MS/MS and the number of viable cells included in each 100-µL sample.

C#C[C@]1(CO)O[C@@H](n2ccc3c(N)nc(Cl)nc32)C[C@@H]1O [Compound 12, (2R,3S,5R)-5-(4-amino-2-chloro-7H-pyrrolo[2,3-d]pyrimidin-7-yl)-2-ethynyl-2-(hydroxymethyl)tetrahydrofuran-3-ol]
IC50 (HIV-2ROD): 7 pM

C#C[C@]1(COP(=O)(O)OP(=O)(O)OP(=O)(O)O)O[C@@H](n2ccc3c(N)nc(Cl)nc32)C[C@@H]1O [MK-8527-TP]
Intracellular MK-8527-TP level by LC–MS/MS [1]: below the limit of quantitation
